The source of these data is US20180016289A1, “REDOX-SENSITIVE VESICLES” (THE ROYAL INSTITUTION FOR THE ADVANCEMENT OF …, priority 2015, published 2018).

This data set can be described thus: Cyclic voltammetry (CV) in acetonitrile. In kind it is physicochemical. The following applies: 0.1 M TBA-PF6, glassy carbon electrode, 50 mV.s^−1, Ag wire coated with AgCl reference, 1 mM. The procedure: FIG. 6: Cyclic voltammetry (CV) measurements conducted in acetonitrile using 0.1 M of TBA-PF6 as the electrolyte. All the measurements were conducted at a scan rate of 50 mV.s^−1 using a glassy carbon (Ø=3 mm) electrode as a working electrode, Pt wire as a counter electrode and Ag wire coated with AgCl as a reference electrode. (A) Voltammogram of a 1 mM ferroceneacetic acid solution (B) voltammogram of a 1 mM phospholipid 2 solution. (C) Voltammogram of a 1 mM phospholipid 3 solution.
FIG. 14: (A) Synthesis of Fc-DSP (3) from ferroceneacetic acid (1) and DSPE (2) using a detailed reaction and another graphical representation that are used in FIGS. 15-17 (B) CV measurements conducted in acetonitrile using 0.1 M of TBA-PF6 as the electrolyte. All measurements were conducted at a scan rate of 50 mV.s^−1 using a glassy carbon (Ø=3 mm) electrode as a working electrode, Pt wire as a counter electrode and Ag wire coated with AgCl as a reference electrode. (black) Voltammogram of a 1 mM phospholipid 2 solution. (red) Voltammogram of 1 mM phospholipid 3 solution.
Cyclic voltammetry (CV) and scanning electrochemical microscopy (SECM) measurements were performed with an HEKA Electrochemical Probe Scanner 3 or Probe Scanner 1 (HEKA Elektronik Dr. Schulze GmbH, Germany). […]

As for ferroceneacetic acid [compound 1], the “reversible oxidation reduction of the ferrocene (potential)” value was found to be 0.42 V.
